Here are results for 25 molecules from US12392782B2, “Characterization of protein binding to per- and polyfluoroalkyl substances” (North Carolina State University, priority 2021, dated 2025).

Molecules are shown by their SMILES. Read-outs that look alike come from different tables or passages of the source.

Usually EC50 stands for the concentration at which the effect is half-maximal. Broadly, the Kd is the free concentration of one partner at which half of the binding sites on the other are occupied at equilibrium, for simple one-to-one binding.

One data set deals with HSA (Homo sapiens, UniProt P02768). The data set can be described thus: Differential scanning fluorimetry (DSF) thermal shift assay of HSA binding. The following applies: for bound by HSA: result in words. Here is the method:
(§1) Assays were also performed in 384-well plates, in which the reactions were performed using half the final volume (10 μL) and the concentration of each reagent was halved compared to those used in the 96-well plates.
(§2) Data are reported as mean values±SEM following background subtraction.
(§3) [formula] Top is the maximal response, bottom is minimal response, P is protein concentration, Kd is dissociation constant, X is ligand concentration, and Y is change in Tm. […] Comparison between protein concentrations and comparisons of calculated binding affinities between different compounds was performed using one-way analysis of variance (ANOVA) and a Tukey's post hoc test was performed to evaluate pair-wise differences. Significance between differences in values was defined as p<0.05.
(§4) Possible solvent effects were investigated for PFOA that was solubilized in each of the three solvents.
Background: In DSF a fluorescence change marks the thermal transition of the protein.

Data set [1] deals with bovine serum albumin (BSA) (Bos taurus, UniProt P02769). The data set can be described thus: DSF thermal shift assay of bovine serum albumin binding. How it is done:
as §1, §2, §3
(§5) Binding affinities for certain PFAS compounds were also determined using PSA, BSA, and RSA.

From the text in data set [2]: as §4
For data set [3] the following is noted: decarboxylation (Liberatore et al.); cited from earlier work.
In data set [4] the target is Porcine serum albumin (PSA) (Sus scrofa, UniProt P08835). The data set can be described thus: DSF thermal shift assay of porcine serum albumin binding. Here is the method: as §1, §2, §3, §5
Sequence of Porcine serum albumin (PSA) (P08835 25-607): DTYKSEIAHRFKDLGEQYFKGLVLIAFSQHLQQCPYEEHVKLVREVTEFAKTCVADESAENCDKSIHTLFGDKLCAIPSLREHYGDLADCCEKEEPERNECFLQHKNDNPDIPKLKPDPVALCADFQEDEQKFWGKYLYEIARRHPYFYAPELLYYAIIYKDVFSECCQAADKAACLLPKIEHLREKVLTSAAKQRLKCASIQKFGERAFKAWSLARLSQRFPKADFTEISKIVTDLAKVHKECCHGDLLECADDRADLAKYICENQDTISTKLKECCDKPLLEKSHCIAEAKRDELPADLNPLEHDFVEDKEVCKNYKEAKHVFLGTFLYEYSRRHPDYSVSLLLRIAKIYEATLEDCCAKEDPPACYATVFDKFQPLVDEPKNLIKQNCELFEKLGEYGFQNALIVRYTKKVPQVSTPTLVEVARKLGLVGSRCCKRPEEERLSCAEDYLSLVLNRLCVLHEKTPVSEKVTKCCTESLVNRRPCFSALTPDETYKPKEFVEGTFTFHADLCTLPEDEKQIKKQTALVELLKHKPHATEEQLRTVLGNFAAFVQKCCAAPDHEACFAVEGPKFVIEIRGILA
The next data set has as its target rat serum albumin (RSA) (Rattus norvegicus, UniProt P02770). The data set can be described thus: DSF thermal shift assay of rat serum albumin binding. Here is the method:
as §1, §2, §3, §5

[5] abbreviates: PFAS, 4-parameter fit of Δ Tm, mean ± SEM.
Where [6] appears, read: PFAS, single site ligand binding model, mean ± SEM.
Setting [7] is: stock solvent DMSO (50% in HBS), mean ± SEM.

Sequence of rat serum albumin (RSA) (P02770 25-608): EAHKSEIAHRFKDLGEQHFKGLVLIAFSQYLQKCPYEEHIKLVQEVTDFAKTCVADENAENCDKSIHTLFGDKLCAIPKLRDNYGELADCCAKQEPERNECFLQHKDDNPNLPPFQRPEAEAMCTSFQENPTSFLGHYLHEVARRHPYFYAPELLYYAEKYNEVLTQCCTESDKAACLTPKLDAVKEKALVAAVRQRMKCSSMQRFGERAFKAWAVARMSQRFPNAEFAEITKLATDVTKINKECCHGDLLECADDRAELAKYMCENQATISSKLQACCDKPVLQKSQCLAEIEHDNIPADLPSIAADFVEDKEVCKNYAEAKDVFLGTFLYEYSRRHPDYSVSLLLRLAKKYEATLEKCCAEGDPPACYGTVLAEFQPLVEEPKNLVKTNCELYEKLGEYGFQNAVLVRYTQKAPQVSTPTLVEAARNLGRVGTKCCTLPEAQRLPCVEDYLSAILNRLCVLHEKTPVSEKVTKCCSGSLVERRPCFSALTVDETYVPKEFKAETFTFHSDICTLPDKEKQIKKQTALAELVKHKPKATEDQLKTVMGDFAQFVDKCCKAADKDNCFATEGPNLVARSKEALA
Sequence of HSA (P02768 25-609): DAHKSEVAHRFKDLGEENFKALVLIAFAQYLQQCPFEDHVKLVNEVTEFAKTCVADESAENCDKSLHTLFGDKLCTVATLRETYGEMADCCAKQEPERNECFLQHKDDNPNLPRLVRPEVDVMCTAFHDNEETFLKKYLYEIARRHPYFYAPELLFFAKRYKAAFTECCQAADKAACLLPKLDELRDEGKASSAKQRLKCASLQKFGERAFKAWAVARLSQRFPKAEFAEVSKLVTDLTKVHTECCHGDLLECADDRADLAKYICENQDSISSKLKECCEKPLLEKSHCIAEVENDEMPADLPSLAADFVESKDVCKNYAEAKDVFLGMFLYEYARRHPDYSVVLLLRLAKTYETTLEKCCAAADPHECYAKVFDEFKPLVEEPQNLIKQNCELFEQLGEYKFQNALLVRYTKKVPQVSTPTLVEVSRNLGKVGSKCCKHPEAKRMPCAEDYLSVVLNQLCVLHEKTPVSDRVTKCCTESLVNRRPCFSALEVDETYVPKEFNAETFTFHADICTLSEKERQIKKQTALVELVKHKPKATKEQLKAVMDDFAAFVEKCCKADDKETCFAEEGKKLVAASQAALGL
Sequence of bovine serum albumin (BSA) (P02769 25-607): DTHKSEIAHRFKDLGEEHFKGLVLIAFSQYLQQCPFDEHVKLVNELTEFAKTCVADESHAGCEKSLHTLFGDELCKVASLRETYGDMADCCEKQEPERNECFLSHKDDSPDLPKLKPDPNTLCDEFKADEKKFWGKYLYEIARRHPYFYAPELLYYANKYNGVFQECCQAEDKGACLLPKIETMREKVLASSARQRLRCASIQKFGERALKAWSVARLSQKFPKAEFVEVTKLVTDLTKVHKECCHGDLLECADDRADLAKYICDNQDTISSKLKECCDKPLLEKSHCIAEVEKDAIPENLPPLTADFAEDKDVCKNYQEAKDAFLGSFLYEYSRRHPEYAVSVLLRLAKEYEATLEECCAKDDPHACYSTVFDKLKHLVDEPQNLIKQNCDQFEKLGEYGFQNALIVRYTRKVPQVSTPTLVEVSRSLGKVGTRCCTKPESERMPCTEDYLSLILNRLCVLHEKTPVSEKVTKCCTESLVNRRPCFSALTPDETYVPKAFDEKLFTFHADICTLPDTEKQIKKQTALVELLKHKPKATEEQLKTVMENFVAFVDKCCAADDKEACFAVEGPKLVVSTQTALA

`O=C(O)CCC(F)(F)C(F)(F)C(F)(F)F` [3:3 FTCA, 2H,2H,3H,3H-Perfluorohexanoic acid]: on HSA, the 50% effective concentration (EC50) came out at 2.06 ± 0.21 mM and the Kd worked out at 1.71 ± 0.19 mM.

`OCCC(F)(F)C(F)(F)C(F)(F)C(F)(F)F` [4:2 FTOH, 1H,1H,2H,2H-Perfluorohexane-1-ol]: the “Δ Tm” value on HSA (PFAS, 0.125 mM HSA, ± SEM) was 0 ± 0 °C. Also, the “bound by HSA” value on HSA is “not bound by HSA”.

Turning to `O=S(=O)(O)CCC(F)(F)C(F)(F)C(F)(F)C(F)(F)F` [4:2 FTSA, 2H,2H,3H,3H-Perfluorohexansulfonic acid], the “Δ Tm” value on HSA (PFAS, 0.125 mM HSA, ± SEM) came out at 3.49 ± 0.084 °C. At HSA (setting [5]), the EC50 was 1.45 ± 0.14 mM. Also, the Kd on HSA (setting [6]) was determined as 1.07 ± 0.19 mM.

Regarding `O=C(O)CCC(F)(F)C(F)(F)C(F)(F)C(F)(F)C(F)(F)F` [5:3 FTCA, 2H,2H,3H,3H-Perfluorooctanoic acid], on HSA, the EC50 was 1.48 ± 0.1 mM and the Kd came to 0.62 ± 0.042 mM.

Regarding `OCCC(F)(F)C(F)(F)C(F)(F)C(F)(F)C(F)(F)C(F)(F)F` [6:2 FTOH, 1H,1H,2H,2H-Perfluorooctanol], the “Δ Tm” value on HSA (PFAS, 0.125 mM HSA, ± SEM) was found to be 0 ± 0 °C. Moreover, the “bound by HSA” value at HSA is reported as “not bound by HSA”.

For `O=S(=O)(O)CCC(F)(F)C(F)(F)C(F)(F)C(F)(F)C(F)(F)C(F)(F)F` [6:2 FTSA, 2H,2H,3H,3H-Perfluorooctane-1-sulfonate], the Kd in data set [1] (read-out: Bovine Kd ± SEM, bovine albumin) came out at 930 ± 50 µM; on HSA (setting [6]), 0.37 ± 0.14 mM; at HSA (read-out: Human Kd ± SEM, human albumin), 0.37 ± 0.14 mM. Further, at HSA (PFAS, 0.125 mM HSA, ± SEM), the “Δ Tm” value amounted to 3.60 ± 0.33 °C. In addition, on HSA (setting [5]), the EC50 is 0.47 ± 0.12 mM.

Consider `O=C(O)CCC(F)(F)C(F)(F)C(F)(F)C(F)(F)C(F)(F)C(F)(F)F` [6:3 FTCA, 2,H,2H,3H,3H-Perfluorononanoic acid], for which, at HSA, the EC50 was 0.84 ± 0.086 mM and the Kd worked out at 0.81 ± 0.092 mM.

On to `O=C(O)CCC(F)(F)C(F)(F)C(F)(F)C(F)(F)C(F)(F)C(F)(F)C(F)(F)C(F)(F)F` [8:3 FTCA, 2,H,2H,3H,3H-Perfluoroundecanoate], for which, on HSA, the EC50 worked out at 1.16 ± 0.17 mM and the Kd stood at 0.97 ± 0.068 mM. The aqueous solubility entry in data set [2] is reported as “limited aqueous solubility”.

As to `FC(OC(F)(F)C(F)(F)C(F)(F)F)C(F)(F)F` (stereo not drawn) [E1, 1,1,1,2,2,3,3-Heptafluoro-3-(1,2,2,2-tetrafluoroethoxy)propane], the “Δ Tm” value at HSA (PFAS, 0.125 mM HSA, ± SEM) was 7.32 ± 0.042 °C. Also, the EC50 on HSA (setting [5]) was determined as 2.34 ± 0.23 mM. The Kd at HSA (setting [6]) was determined as 1.64 ± 0.14 mM.

For the molecule `O=C(O)C(F)(OC(F)(F)C(F)(F)C(F)(F)F)C(F)(F)F` (stereo not drawn) [HFPO-DA, hexafluoropropylene oxide dimer acid], the EC50 at HSA (HFPO-DA in DMSO (1:1 HBS and DMSO, room temperature 4 hours before analysis)) turned out to be 2.34 ± 0.23 mM; on HSA (setting [5]) it was 1.83 ± 0.25 mM. In addition, on HSA (PFAS, 0.125 mM HSA, ± SEM), the “Δ Tm” value was 13.7 ± 0.12 °C. Moreover, on HSA (setting [6]), the Kd turned out to be 1.6 ± 0.16 mM. Further, in data set [3], the “stability in DMSO” value was “rapidly converted to E1”.

For the molecule `CCCCCCCCCCCCCCCC(=O)O` [Hexadecanoic Acid, hexadecanoic acid, reference compound], at HSA, the EC50 is 0.084 ± 0.021 mM and the Kd came out at 0.03 ± 0.008 mM.

Turning to `O=S(=O)(O)C(F)(F)C(F)(F)OC(F)(C(F)(F)F)C(F)(F)OC(F)C(F)(F)F` (stereo not drawn) [Nafion bp2, 7H-perfluoro-4-methyl-3,6-dioxaoctanesulfonic acid], on HSA, the EC50 came out at 1.9 ± 0.24 mM and the Kd is 1.51 ± 0.15 mM.

Take `O=C(O)C(F)(F)C(F)(F)C(F)(F)F` [PFBA, Perfluorobutanoic acid]: the Kd in data set [1] came to 980 ± 100 µM; in data set [4], 1.5 ± 0.11 mM; on HSA, 2.57 ± 0.32 mM; on rat serum albumin (RSA), 1390 ± 110 µM. Also, on HSA, the EC50 was found to be 2.61 ± 0.19 mM.

In the case of `O=S(=O)(O)C(F)(F)C(F)(F)C(F)(F)C(F)(F)F` [PFBS, Perfluorobutanesulfonic acid], the Kd was 1130 ± 80 µM in data set [1], 1.55 ± 0.04 mM in data set [4], 1.65 ± 0.28 mM on HSA and 930 ± 80 µM on rat serum albumin (RSA). At HSA, the EC50 came out at 1.72 ± 0.23 mM.

Take `O=C(O)C(F)(F)C(F)(F)C(F)(F)C(F)(F)C(F)(F)C(F)(F)C(F)(F)C(F)(F)C(F)(F)F` [PFDA, perfluorodecanoic acid]: on HSA, the 50% effective concentration (EC50) stood at 1.11 ± 0.07 mM and the Kd is 1.19 ± 0.24 mM.

With `O=C(O)C(F)(F)C(F)(F)C(F)(F)C(F)(F)C(F)(F)C(F)(F)C(F)(F)C(F)(F)C(F)(F)C(F)(F)C(F)(F)F` [PFDoA, perfluorododecanoic acid], the “Δ Tm” value on HSA (PFAS, 0.125 mM HSA, ± SEM) came to 7.74 ± 0.14 °C. Moreover, the EC50 at HSA (setting [5]) came to 2.51 ± 0.14 mM. Moreover, on HSA (setting [6]), the Kd stood at 1.89 ± 0.26 mM.

In the case of `O=C(O)C(F)(F)C(F)(F)C(F)(F)C(F)(F)C(F)(F)C(F)(F)F` [PFHpA, perfluoroheptanoic acid], on HSA (PFAS, 0.125 mM HSA, ± SEM), the “Δ Tm” value came to 15.3 ± 0.29 °C. For the same molecule, at HSA (setting [5]), the EC50 is 0.68 ± 0.06 mM. For the same molecule, the Kd on HSA (setting [6]) came to 0.44 ± 0.08 mM.

In the case of `O=C(O)C(F)(F)C(F)(F)C(F)(F)C(F)(F)C(F)(F)F` [PFHxA, Perfluorohexanoic acid], the Kd came to 950 ± 110 µM in data set [1], 1.42 ± 0.03 mM in data set [4], 1.64 ± 0.19 mM at HSA and 960 ± 70 µM on rat serum albumin (RSA). For the same molecule, the EC50 on HSA was found to be 1.4 ± 0.11 mM.

For the molecule `O=S(=O)(O)C(F)(F)C(F)(F)C(F)(F)C(F)(F)C(F)(F)C(F)(F)F` [PFHxS, perfluorohexanesulfonic acid], the “Δ Tm” value on HSA (PFAS, 0.125 mM HSA, ± SEM) was 11.0 ± 0.17 °C. Moreover, the EC50 on HSA (setting [5]) was found to be 0.98 ± 0.028 mM. In addition, the Kd at HSA (setting [6]) was 0.71 ± 0.19 mM.

Consider `O=C(O)C(F)(F)C(F)(F)C(F)(F)C(F)(F)C(F)(F)C(F)(F)C(F)(F)C(F)(F)F` [PFNA, perfluorononanoic acid], for which, at HSA, the concentration for a half-maximal effect (EC50) amounted to 0.6 ± 0.092 mM and the Kd worked out at 0.58 ± 0.087 mM.

Turning to `O=C(O)C(F)(F)OC(F)(F)C(F)(F)OC(F)(F)C(F)(F)OC(F)(F)F` [PFO3DoDA, Perfluoro-3,6,9-trioxadecanoic acid], the “Δ Tm” value on HSA (PFAS, 0.125 mM HSA, ± SEM) came to 20.6 ± 0.58 °C. For the same molecule, on HSA (setting [5]), the EC50 is 1.67 ± 0.19 mM. Further, the Kd at HSA (setting [6]) is 1.53 ± 0.14 mM.

Regarding `O=C(O)C(F)(F)C(F)(F)C(F)(F)C(F)(F)C(F)(F)C(F)(F)C(F)(F)F` [PFOA, perfluorooctanoic acid], the dissociation constant (Kd) in data set [1] turned out to be 750 ± 50 µM; in data set [4], 0.32 ± 0.04 mM; on HSA (setting [7]), 0.84 ± 0.08 mM; at HSA (stock solvent HEPES-buffered saline (HBS), mean ± SEM) it was 0.83 ± 0.11 mM. Moreover, the EC50 at HSA (setting [5]) was found to be 0.84 ± 0.043 mM; at HSA (setting [7]) it was 0.85 ± 0.01 mM; at HSA (stock solvent Methanol (30% in HBS), mean ± SEM) it was 0.78 ± 0.07 mM. The “Δ Tm” value at HSA (stock solvent DMSO (50% in HBS)) is 13.2 °C; on HSA (stock solvent Methanol (30% in HBS)), 13.5 °C.

Regarding `O=S(=O)(O)C(F)(F)C(F)(F)C(F)(F)C(F)(F)C(F)(F)C(F)(F)C(F)(F)C(F)(F)F` [PFOS, perfluorooctanesulfonic acid], on HSA, the EC50 turned out to be 1.13 ± 0.13 mM.

Regarding `O=C(O)C(F)(F)C(F)(F)C(F)(F)C(F)(F)F` [PFPeA, perfluoropentanoic acid], at HSA, the EC50 was 2.14 ± 0.17 mM and the Kd amounted to 2.1 ± 0.23 mM.

`O=C(O)C(F)(F)C(F)(F)C(F)(F)C(F)(F)C(F)(F)C(F)(F)C(F)(F)C(F)(F)C(F)(F)C(F)(F)F` [PFunDA, Perfluoroundecanoic acid]: at HSA, the EC50 amounted to 1.49 ± 0.024 mM and the Kd was found to be 1.36 ± 0.53 mM.
